Activity calls are given as the source filed them. The rule behind the calls is not given here.
Assays:
Assay type in all cases: functional
Rattus norvegicus [1] = experiment: Antipyretic activity in Wistar Rattus norvegicus (rat) assessed as decrease in Brewer's yeast solution-induced hyperthermia at 150 mg/kg, po measured after 3 hr (reference value: 36.8 +/- 1.9 degC)
Rattus norvegicus [2] = experiment: Anti-inflammatory activity in Wistar Rattus norvegicus (rat) assessed as inhibition of carrageenan-induced paw edema at 150 mg/kg, po administered 30 min prior to carrageenan challenge measured at 90 min relative to untreated control
Rattus norvegicus [3] = experiment: Anti-inflammatory activity in Wistar Rattus norvegicus (rat) assessed as inhibition of carrageenan-induced paw edema at 100 mg/kg, po administered 30 min prior to carrageenan challenge measured at 90 min relative to untreated control
Rattus norvegicus [4] = experiment: Anti-inflammatory activity in Wistar Rattus norvegicus (rat) assessed as inhibition of carrageenan-induced paw edema at 150 mg/kg, po administered 30 min prior to carrageenan challenge measured at 60 min relative to untreated control
Rattus norvegicus [5] = experiment: Anti-inflammatory activity in Wistar Rattus norvegicus (rat) assessed as inhibition of carrageenan-induced paw edema at 50 mg/kg, po administered 30 min prior to carrageenan challenge measured at 60 min relative to untreated control
Rattus norvegicus [6] = experiment: Anti-inflammatory activity in Wistar Rattus norvegicus (rat) assessed as inhibition of carrageenan-induced paw edema at 100 mg/kg, po administered 30 min prior to carrageenan challenge measured at 30 min post carrageenan challenge relative to untreated control
Rattus norvegicus [7] = experiment: Anti-inflammatory activity in Wistar Rattus norvegicus (rat) assessed as inhibition of carrageenan-induced paw edema at 50 mg/kg, po administered 30 min prior to carrageenan challenge measured at 30 min post carrageenan challenge relative to untreated control
Rattus norvegicus [8] = experiment: Antipyretic activity in Wistar Rattus norvegicus (rat) assessed as decrease in Brewer's yeast solution-induced hyperthermia at 50 mg/kg, po measured after 2 hr (reference value: 37 +/- 1.7 degC)
Rattus norvegicus [9] = experiment: Antipyretic activity in Wistar Rattus norvegicus (rat) assessed as decrease in Brewer's yeast solution-induced hyperthermia at 150 mg/kg, po measured after 1 hr (reference value: 37 +/- 3.55 degC)
Rattus norvegicus [10] = experiment: Antipyretic activity in Wistar Rattus norvegicus (rat) assessed as decrease in Brewer's yeast solution-induced hyperthermia at 100 mg/kg, po measured after 1 hr (reference value: 37 +/- 3.55 degC)
Rattus norvegicus [11] = experiment: Anti-inflammatory activity in Wistar Rattus norvegicus (rat) assessed as inhibition of carrageenan-induced paw edema at 100 mg/kg, po administered 30 min prior to carrageenan challenge measured at 180 min relative to untreated control
Rattus norvegicus [12] = experiment: Anti-inflammatory activity in Wistar Rattus norvegicus (rat) assessed as inhibition of carrageenan-induced paw edema at 150 mg/kg, po administered 30 min prior to carrageenan challenge measured at 120 min relative to untreated control
Rattus norvegicus [13] = experiment: Anti-inflammatory activity in Wistar Rattus norvegicus (rat) assessed as inhibition of carrageenan-induced paw edema at 100 mg/kg, po administered 30 min prior to carrageenan challenge measured at 120 min relative to untreated control
Rattus norvegicus [14] = experiment: Anti-inflammatory activity in Wistar Rattus norvegicus (rat) assessed as inhibition of carrageenan-induced paw edema at 50 mg/kg, po administered 30 min prior to carrageenan challenge measured at 120 min relative to untreated control
[15] = Antioxidant activity assessed as reduction of Fe3+ to Fe2+ at 20 to 120 ug/ml after 30 min by spectrophotometric analysis
Rattus norvegicus [16] = experiment: Effect on GST level in Wistar Rattus norvegicus (rat) liver measured CDNB conjugated per min per mg of protein at 150 mg/kg, po after 10 days (reference value: 0.86 +/- 0.08 mmol)
Rattus norvegicus [17] = experiment: Effect on GST level in Wistar Rattus norvegicus (rat) liver measured CDNB conjugated per min per mg of protein at 100 mg/kg, po after 10 days (reference value: 0.86 +/- 0.08 mmol)
Rattus norvegicus [18] = experiment: Effect on LDH level in Wistar Rattus norvegicus (rat) serum at 50 mg/kg, po qd after 10 days (reference value: 249.89 +/- 13.26 U/I)
Rattus norvegicus [19] = experiment: Effect on gamma-glutamyl transferase level in Wistar Rattus norvegicus (rat) serum at 100 mg/kg, po qd after 10 days (reference value: 0.57 +/- 0.04 U/I)
Rattus norvegicus [20] = experiment: Effect on gamma-glutamyl transferase level in Wistar Rattus norvegicus (rat) serum at 150 mg/kg, po qd after 10 days (reference value: 0.57 +/- 0.04 U/I)
Rattus norvegicus [21] = experiment: Effect on ALP level in Wistar Rattus norvegicus (rat) serum at 150 mg/kg, po qd after 10 days (reference value: 39.5 +/- 3.86 U/I)
Rattus norvegicus [22] = experiment: Effect on ALP level in Wistar Rattus norvegicus (rat) serum at 100 mg/kg, po qd after 10 days (reference value: 39.5 +/- 3.86 U/I)
Rattus norvegicus [23] = experiment: Effect on ALP level in Wistar Rattus norvegicus (rat) serum at 50 mg/kg, po qd after 10 days (reference value: 39.5 +/- 3.86 U/I)
Rattus norvegicus [24] = experiment: Effect on SGPT level in Wistar Rattus norvegicus (rat) at 150 mg/kg, po qd after 10 days (reference value: 38.77 +/- 4.25 U/I)
Rattus norvegicus [25] = experiment: Effect on SGPT level in Wistar Rattus norvegicus (rat) at 50 mg/kg, po qd after 10 days (reference value: 38.77 +/- 4.25 U/I)
Rattus norvegicus [26] = experiment: Effect on SGOT level in Wistar Rattus norvegicus (rat) at 150 mg/kg, po qd after 10 days (reference value: 145.50 +/- 13.86 U/I)
Rattus norvegicus [27] = experiment: Effect on SGOT level in Wistar Rattus norvegicus (rat) at 100 mg/kg, po qd after 10 days (reference value: 145.50 +/- 13.86 U/I)
Rattus norvegicus [28] = experiment: Effect on glutathione reductase level in Wistar Rattus norvegicus (rat) liver measured NADPH oxidized per min per mg of protein at 100 mg/kg, po after 10 days (reference value: 4.19 +/ 0.42 nmol)
Rattus norvegicus [29] = experiment: Effect on glutathione peroxidase level in Wistar Rattus norvegicus (rat) liver measured GSH oxidized per min per mg of protein at 150 mg/kg, po after 10 days (reference value: 47.47 +/- 3.86 mmol)
Rattus norvegicus [30] = experiment: Effect on glutathione peroxidase level in Wistar Rattus norvegicus (rat) liver measured GSH oxidized per min per mg of protein at 100 mg/kg, po after 10 days (reference value: 47.47 +/- 3.86 mmol)
Rattus norvegicus [31] = experiment: Effect on glutathione peroxidase level in Wistar Rattus norvegicus (rat) liver measured GSH oxidized per min per mg of protein at 50 mg/kg, po after 10 days (reference value: 47.47 +/- 3.86 mmol)
Rattus norvegicus [32] = experiment: Effect on LDH level in Wistar Rattus norvegicus (rat) serum at 100 mg/kg, po qd after 10 days (reference value: 249.89 +/- 13.26 U/I)

Row | SMILES | T (Rattus norvegicus [1]) | inhibition in vivo at 150 mg/kg (Rattus norvegicus [2]) | inhibition in vivo at 100 mg/kg (Rattus norvegicus [3]) | inhibition in vivo at 150 mg/kg (Rattus norvegicus [4]) | inhibition in vivo at 50 mg/kg (Rattus norvegicus [5]) | inhibition in vivo at 100 mg/kg (Rattus norvegicus [6]) | inhibition in vivo at 50 mg/kg (Rattus norvegicus [7]) | T (Rattus norvegicus [8]) | T (Rattus norvegicus [9]) | T (Rattus norvegicus [10]) | inhibition in vivo at 100 mg/kg (Rattus norvegicus [11]) | inhibition in vivo at 150 mg/kg (Rattus norvegicus [12]) | inhibition in vivo at 100 mg/kg (Rattus norvegicus [13]) | inhibition in vivo at 50 mg/kg (Rattus norvegicus [14]) | Activity [15] | Activity (Rattus norvegicus [16]) | Activity (Rattus norvegicus [17]) | Activity (Rattus norvegicus [18]) | Activity (Rattus norvegicus [19]) | Activity (Rattus norvegicus [20]) | also measured
1 | O=c1c2ccccc2nc2n1NC(c1ccc(O)c(O)c1)C2 (centres undefined) | 36.6 °C | 44.2% | 45.9% | 34.2% | 28.1% | 4.58% | 1.28% | 36.5 °C | 37.5 °C | 37.8 °C | 48.3% | 58.2% | 54.7% | 53.7% | Active | 1.34 mmol | 1.15 mmol | 246.29 U/L | 0.51 U/L | 0.5 U/L | Activity (Rattus norvegicus [21]): 37.58 U/L; Activity (Rattus norvegicus [22]): 35.64 U/L; Activity (Rattus norvegicus [23]): 40.77 U/L; Activity (Rattus norvegicus [24]): 33.26 U/L; Activity (Rattus norvegicus [25]): 41.97 U/L; Activity (Rattus norvegicus [26]): 134.55 U/L; Activity (Rattus norvegicus [27]): 136.34 U/L; Activity (Rattus norvegicus [28]): 4.25 nmol; Activity (Rattus norvegicus [29]): 53.45 mmol; Activity (Rattus norvegicus [30]): 51.38 mmol; Activity (Rattus norvegicus [31]): 49.25 mmol; Activity (Rattus norvegicus [32]): 243.46 U/L
2 | COC(=O)c1ccccc1NC(=O)/C=C/c1ccc(O)c(O)c1 | 36.5 °C | 62.6% | 49.3% | 52.7% | 41.6% | 26.8% | 24.7% | 37 °C | 36.9 °C | 37.2 °C | 70.7% | 76% | 64.3% | 63.8% | Active | 1.97 mmol | 1.54 mmol | 240.38 U/L | 0.51 U/L | 0.49 U/L | Activity (Rattus norvegicus [21]): 31.17 U/L; Activity (Rattus norvegicus [22]): 35.64 U/L; Activity (Rattus norvegicus [23]): 38.3 U/L; Activity (Rattus norvegicus [24]): 40.84 U/L; Activity (Rattus norvegicus [25]): 42.47 U/L; Activity (Rattus norvegicus [26]): 129.32 U/L; Activity (Rattus norvegicus [27]): 133.79 U/L; Activity (Rattus norvegicus [28]): 5.59 nmol; Activity (Rattus norvegicus [29]): 57.89 mmol; Activity (Rattus norvegicus [30]): 53.74 mmol; Activity (Rattus norvegicus [31]): 49.11 mmol; Activity (Rattus norvegicus [32]): 239.19 U/L
